≈ marks a conversion by molar mass, not a printed value.
Compound | logP | solubility [µM]
Nc1ncc2ncn(COCCO)c2n1 | -1.08 | –
CCOP(=S)(OCC)Oc1cc(C)nc(C(C)C)n1 | – | 131 (≈ 40 µg/mL)
Nc1cccc2c(N)cccc12 | 0.89 | –
COc1cccc(C=O)c1 | 1.71 | –
Cc1ncc([N+](=O)[O-])n1C | 0.31 | –
ClC1(Cl)CC1(c1ccccc1)c1ccccc1 | 4.88 | –
COc1ccc(C=O)cc1OC | 1.22 | –
COP(N)(=S)Oc1ccccc1C(=O)OC(C)C (stereo not given) | 2.7 | –
Clc1ccc(Cl)c(-c2cc(Cl)c(Cl)cc2Cl)c1 | 5.68 | –
Cc1c(Cl)c(Cl)c(C(C)C)c(Cl)c1Cl | 6.8 | –
N#CCC#N | -0.6 | –
CC1CCCCN1CCCOC(=O)c1ccc(Cl)c(Cl)c1 (stereo not given) | – | 60.6 (≈ 20 µg/mL)
Clc1ccc(Cl)nn1 | 0.7 | –
OC(Cn1cncn1)(c1ccc(F)cc1)c1ccccc1F (stereo not given) | 2.29 | –
O=P(O)(O)CCCl | -0.22 | –
Cc1sc(C(=O)Nc2nnn[nH]2)c(OC(C)C)c1Br | 1.72 | –
C=CC(=O)NCCc1cnc[nH]1 | -0.21 | –
CCCCN(C)N=O | 1.08 | –
OCCC(F)(F)C(F)(F)C(F)(F)C(F)(F)F | 3.3 | –

Compound | logP | solubility [µM]
CCC1(C)CC(=O)NC1=O (stereo not given) | 0.38 | –
CC1=NS(=O)(=O)c2ncccc2N1 | -0.91 | –
CC(=O)OCN1C(=O)C(C)=C(C)C1=O | 0.65 | –
CCn1c2ccccc2c2ccccc21 | 4.49 | –
CCCCC[C@H](O)/C=C/[C@H]1[C@H](O)CC(=O)[C@@H]1CCCCCCC(=O)O | 3.2 | –
ClC=C1C2CC(C(Cl)C2Cl)C1(CCl)C(Cl)Cl (stereo not given) | 5.45 | –
NCCCN1c2ccccc2Sc2ccc(Cl)cc21 | 4.47 | –
Nc1cccc2cccc(N)c12 | 1.78 | –
COC(=O)c1sccc1S(=O)(=O)NC(=O)Nc1nc(C)nc(OC)n1 | 1.56 | –
CCCCC(=O)OCN1C(=O)NC(c2ccccc2)(c2ccccc2)C1=O | 3.9 | –
O=[N+]([O-])c1cccc2c1-c1cccc3c([N+](=O)[O-])ccc-2c13 | 4.44 | –
C[Si]1(C)O[Si](C)(C)O[Si](C)(C)O[Si](C)(C)O[Si](C)(C)O1 | 8.03 | –
c1ccc(N=Nc2ccccc2)cc1 | – | 35.1 (≈ 6.4 µg/mL)
CCNC(N)=S | -0.21 | –
CC1=C(C)C(=O)C=CC1=O | 1.23 | –
CCOc1ccccc1NCc1cnc2nc(N)nc(N)c2c1C | 2.07 | –
Clc1cccc(-c2c(Cl)ccc(Cl)c2Cl)c1Cl | 6.04 | –
Cc1ccc(S(=O)(=O)N(C)C(=O)c2ccccc2)cc1 | 2.95 | –
CSc1ccc(C=C(C#N)C#N)o1 | 2.45 | –

Compound | logP | solubility [µM]
ClC1=CC2(Cl)C3CC(Cl)C(Cl)C3C1(Cl)C2(Cl)Cl (stereo not given) | 5.56 | –
Cc1cc(Cl)c(Cl)cc1Cc1c(Cl)cccc1Cl | 7.15 | –
c1ccc2c(c1)[nH]c1cnccc12 | 3.17 | –
CC(C)(C)C1CCC(O)CC1 (stereo not given) | 3.23 | –
CCCCOCCOCCCC | 2.48 | –
Clc1cc2c(Cl)cccc2c(Cl)c1Cl | 5.77 | –
COC(=O)c1ccccc1S(=O)(=O)NC(=O)Nc1nc(C)cc(C)n1 | 1.2 | –
Cc1cc(Cc2ccc(Cl)cc2Cl)c(Cl)cc1Cl | 7.43 | –
CCCCN=C=S | 2.92 | –
Fc1ccc(C2=CCNCC2)cc1 | 2.37 | –
O=C(O)C(c1ccc(Cl)cc1)c1ccc(Cl)cc1 | 4.64 | –
O=C1NCCC2CNC(=O)C12 (stereo not given) | -1.95 | –
ClC1=C(Cl)C2(Cl)C(Cl)(Cl)C3CC(Cl)C1C3C2(Cl)Cl (stereo not given) | 6.09 | –
c1ccc2c(c1)Cc1cc3ccccc3cc1-2 | 5.77 | –
C1=CCC=C1 | – | 27200 (≈ 1800 µg/mL)
Nc1ccc2c(c1)Cc1cc([N+](=O)[O-])ccc1-2 | 3.06 | –
Oc1ccc(O)cc1 | – | 654000 (≈ 72000 µg/mL)
CCOP(=O)(OCC)SCc1ccccc1 | 3.21 | 3840 (≈ 1000 µg/mL)

The next lines start with results.

logP | Compound | solubility [µM]
-0.85 | CC(=O)Nc1nc(=O)c2ncn(COCCOC(C)=O)c2[nH]1 | –
1.15 | Nc1ncnc2c1ncn2C1OC2COP(=O)(OCc3ccccc3)OC2C1O (stereo not given) | –
2.05 | CCCCC(C)=NNC(N)=Nc1ccccc1 | –
3.08 | COc1ccc2cc(CCC(C)=O)ccc2c1 | –
0.24 | CN1CCN(c2c(F)cc3c(=O)c(C(=O)O)cn(CCF)c3c2F)CC1 | –
1.45 | CC(=O)c1ccc(NCc2cnc3nc(N)nc(N)c3c2C)cc1 | –
3.95 | C=CCOc1ccccc1OCC(CNC(C)C)OC(=O)CCC (stereo not given) | –
1.88 | NC(=O)c1cccc2ccccc12 | –
5.2 | COC(=O)C1=C(C)NC(C)=C(C(=O)OCCN2CCN(C(c3ccccc3)c3ccccc3)CC2)C1c1cccc([N+](=O)[O-])c1 (stereo not given) | –
0.47 | NC(Cc1ccc(O)c(O)c1)C(=O)OCC1CCCCO1 (stereo not given) | –
1.6 | CCOC(=O)CCn1nnc2ccccc21 | –
2.16 | CCCN1CCCC1CNC(=O)c1cc(S(N)(=O)=O)ccc1OC (stereo not given) | –
3.33 | CC1(C)Cc2cccc([N+](=O)[O-])c2O1 | –
-0.5 | Nc1nc(=O)n([C@H]2CC[C@@H](CO)O2)cc1Br | –
6.7 | Cc1cc(Cl)ccc1OCC(=O)OCCCCCC(C)C | –
2.55 | OCc1cccc(I)c1 | –
2.75 | CC(C)Cc1ccc(C(C)(O)C(=O)O)cc1 (stereo not given) | –
2.27 | CCCCOCCNc1ccccc1C(N)=O | –
4.63 | CCCCOC(=O)c1ccccc1O | –
2.8 | CCC(=O)OCN1C(=O)NC(c2ccccc2)(c2ccccc2)C1=O | –
0.26 | Brc1cccc(O[Si]23OCCN(CCO2)CCO3)c1 | –
2.33 | NC(Cc1ccc(O)c(O)c1)C(=O)OCCc1ccc(Cl)cc1 (stereo not given) | –
1.6 | CC1CCc2cc(F)cc3c(=O)c(C(=O)O)cn1c23 (stereo not given) | –

Source: the OPERA property sets (Mansouri et al. 2018)
